Columns and labels:
Assay in all cases: relative viability (nuclei count vs DMSO), 5 days (fraction); higher = more cells survive
Cediranib + Lapatinib = compound: COc1cc2c(Oc3ccc4[nH]c(C)cc4c3F)ncnc2cc1OCCCN1CCCC1 [Cediranib] + CS(=O)(=O)CCNCc1ccc(-c2ccc3ncnc(Nc4ccc(OCc5cccc(F)c5)c(Cl)c4)c3c2)o1 [Lapatinib] (partner 2 µM)
How it was run: (§1)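 A single step with final 0.05% Triton X-100, 1% formaldehyde and 1 ug/ml Hoechst fixed the cells and stained nuclei 5 days after treatment. Lung cancer cell lines in 1536-well plates had been treated by pin tool the day after seeding with one drug alone or a fixed anchor-drug dose plus five library-drug doses (not always all listed) in √10 steps, and nuclei were counted on 4× images. Relative viability is the ratio of nuclei in treated wells to nuclei in vehicle wells, taken as the median of duplicate plates.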

Cediranib + Phenformin = compound: COc1cc2c(Oc3ccc4[nH]c(C)cc4c3F)ncnc2cc1OCCCN1CCCC1 [Cediranib] + N=C(N)NC(=N)NCCc1ccccc1 [Phenformin] (partner 250 µM)
How it was run: as §1

Decitabine + Palbociclib = compound: Nc1ncn([C@H]2C[C@H](O)[C@@H](CO)O2)c(=O)n1 [Decitabine] + CC(=O)c1c(C)c2cnc(Nc3ccc(N4CCNCC4)cn3)nc2n(C2CCCC2)c1=O [Palbociclib] (partner 0.5 µM)
How it was run: as §1

Decitabine + AZD7762 = compound: Nc1ncn([C@H]2C[C@H](O)[C@@H](CO)O2)c(=O)n1 [Decitabine] + NC(=O)Nc1cc(-c2cccc(F)c2)sc1C(=O)N[C@H]1CCCNC1 [AZD7762] (partner 0.2 µM)
How it was run: as §1

Cell Line | relative viability (Cediranib + Lapatinib; first compound 0.04 µM) | relative viability (Cediranib + Lapatinib; first compound 0.1265 µM) | relative viability (Cediranib + Lapatinib; first compound 0.4 µM) | relative viability (Cediranib + Lapatinib; first compound 1.265 µM) | relative viability (Cediranib + Lapatinib; first compound 4 µM) | relative viability (Cediranib + Phenformin; first compound 0.04 µM) | relative viability (Cediranib + Phenformin; first compound 0.1265 µM) | relative viability (Cediranib + Phenformin; first compound 0.4 µM) | relative viability (Cediranib + Phenformin; first compound 1.265 µM) | relative viability (Cediranib + Phenformin; first compound 4 µM) | relative viability (Decitabine + Palbociclib; first compound 0.04 µM) | relative viability (Decitabine + Palbociclib; first compound 0.1265 µM) | relative viability (Decitabine + Palbociclib; first compound 0.4 µM) | relative viability (Decitabine + Palbociclib; first compound 1.265 µM) | relative viability (Decitabine + Palbociclib; first compound 4 µM) | relative viability (Decitabine + AZD7762; first compound 0.04 µM) | relative viability (Decitabine + AZD7762; first compound 0.1265 µM) | relative viability (Decitabine + AZD7762; first compound 0.4 µM) | relative viability (Decitabine + AZD7762; first compound 1.265 µM) | relative viability (Decitabine + AZD7762; first compound 4 µM)
NCI-H838 | 1.02 | 0.796 | 0.914 | 0.737 | 1.11 | 0.588 | 0.513 | 0.49 | 0.452 | 0.603 | 0.259 | 0.275 | 0.194 | 0.211 | 0.199 | 0.74 | 0.753 | 0.815 | 0.68 | 0.659
Calu-6 | 1.17 | 1.08 | 0.874 | 1.03 | 1.14 |  |  |  |  |  |  |  |  |  |  |  |  |  |  | 
NCI-H1648 |  |  |  |  |  |  |  |  |  |  | 0.275 | 0.246 | 0.296 | 0.287 | 0.31 | 0.692 | 0.672 | 0.469 | 0.448 | 0.428
LCLC-97TM1 | 1.03 |  | 0.976 | 1.15 | 1.01 | 0.501 | 0.288 | 0.421 | 0.49 | 0.449 | 0.207 | 0.197 | 0.171 | 0.152 | 0.22 | 0.0916 | 0.108 | 0.0741 | 0.102 | 0.0907
HCC-15 | 0.898 |  | 0.806 | 1.01 | 0.897 | 0.491 |  | 0.474 | 0.512 | 0.509 | 0.776 | 0.591 | 0.412 | 0.38 | 0.441 | 1.12 | 0.777 | 0.752 | 0.632 | 0.747
CAL-12T | 0.681 |  | 0.614 | 0.676 | 0.877 | 0.618 | 0.641 | 0.597 | 0.627 | 0.648 | 0.279 | 0.431 | 0.25 | 0.28 | 0.288 | 0.638 | 0.578 | 0.48 | 0.443 | 0.453
NCI-H727 | 0.774 | 0.483 | 0.733 | 0.919 | 0.732 |  |  | 0.483 | 0.528 | 0.533 | 0.641 | 0.608 | 0.653 | 0.617 | 0.6 | 0.562 | 0.588 | 0.427 | 0.462 | 0.574
ABC-1 | 1.24 | 1.39 | 1.14 | 1.06 | 1.24 | 0.226 | 0.294 | 0.243 |  | 0.241 |  | 0.805 | 0.794 | 0.57 | 0.551 | 0.668 | 0.814 | 0.712 | 0.701 | 0.84
NCI-H2023 | 0.852 | 0.0771 | 0.716 | 0.654 | 0.878 | 0.417 | 0.443 | 0.396 | 0.42 | 0.458 | 0.329 | 0.36 | 0.287 | 0.23 | 0.157 |  |  |  |  | 
NCI-H2342 |  |  |  |  |  | 0.563 | 0.825 | 0.635 | 0.466 | 0.58 | 0.641 | 0.54 | 0.548 | 0.463 | 0.508 | 0.507 | 0.593 | 0.517 | 0.457 | 0.319
